pEC50: −log10 of the molar value. Read-outs that look alike come from different tables or passages of the source. Marks after values point to notes of the source that are not given here.
Molecular target: T1, F508delCFTR (Homo sapiens, UniProt P13569, DEL508-508)
T1 construct: expressed in transfected cells; host or cells: CFBE41o- human lung derived epithelial cells (CFBE41o-F508delCFTR-HRP), doxycycline-inducible
Assay: Cell Surface Expression-Horse Radish Peroxidase (CSE-HRP) Assay;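 for EC50 (with co-corrector): co-corrector chromenyl benzoic acid corrector at 2 or 3 µM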;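 for Maximum % activity (without co-corrector): % of on-plate positive control chromenyl benzoic acid corrector at 2 or 3 µM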
Type: cell-based
Conditions: for Maximum % activity (with co-corrector) / Emax: maximum at any tested concentration; for Emax: read-out: Maximum % activity (without co-corrector)
Procedure, shortened: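 Corrector compounds were given as 8-point 3-fold series from 20 or 30 μM, with or without a 2 μM co-corrector, for 18-24 h at 33 °C. Surface HRP was read by luminol luminescence as % of positive control; variable-Hill-slope sigmoidal fitting gave EC50 from triplicate plates.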

[1] = test compound with co-corrector
[2] = test compound with co-corrector, read-out: EC50 (with co-corrector)
[3] = test compound without co-corrector
[4] = test compound without co-corrector, read-out: EC50 (without co-corrector)
[5] = test compound alone, without co-corrector, read-out: EC50 (without co-corrector)
[6] = with co-corrector, read-out: EC50 (with co-corrector)

T1 sequence (P13569 with tags, fused parts or gaps DEL508-508): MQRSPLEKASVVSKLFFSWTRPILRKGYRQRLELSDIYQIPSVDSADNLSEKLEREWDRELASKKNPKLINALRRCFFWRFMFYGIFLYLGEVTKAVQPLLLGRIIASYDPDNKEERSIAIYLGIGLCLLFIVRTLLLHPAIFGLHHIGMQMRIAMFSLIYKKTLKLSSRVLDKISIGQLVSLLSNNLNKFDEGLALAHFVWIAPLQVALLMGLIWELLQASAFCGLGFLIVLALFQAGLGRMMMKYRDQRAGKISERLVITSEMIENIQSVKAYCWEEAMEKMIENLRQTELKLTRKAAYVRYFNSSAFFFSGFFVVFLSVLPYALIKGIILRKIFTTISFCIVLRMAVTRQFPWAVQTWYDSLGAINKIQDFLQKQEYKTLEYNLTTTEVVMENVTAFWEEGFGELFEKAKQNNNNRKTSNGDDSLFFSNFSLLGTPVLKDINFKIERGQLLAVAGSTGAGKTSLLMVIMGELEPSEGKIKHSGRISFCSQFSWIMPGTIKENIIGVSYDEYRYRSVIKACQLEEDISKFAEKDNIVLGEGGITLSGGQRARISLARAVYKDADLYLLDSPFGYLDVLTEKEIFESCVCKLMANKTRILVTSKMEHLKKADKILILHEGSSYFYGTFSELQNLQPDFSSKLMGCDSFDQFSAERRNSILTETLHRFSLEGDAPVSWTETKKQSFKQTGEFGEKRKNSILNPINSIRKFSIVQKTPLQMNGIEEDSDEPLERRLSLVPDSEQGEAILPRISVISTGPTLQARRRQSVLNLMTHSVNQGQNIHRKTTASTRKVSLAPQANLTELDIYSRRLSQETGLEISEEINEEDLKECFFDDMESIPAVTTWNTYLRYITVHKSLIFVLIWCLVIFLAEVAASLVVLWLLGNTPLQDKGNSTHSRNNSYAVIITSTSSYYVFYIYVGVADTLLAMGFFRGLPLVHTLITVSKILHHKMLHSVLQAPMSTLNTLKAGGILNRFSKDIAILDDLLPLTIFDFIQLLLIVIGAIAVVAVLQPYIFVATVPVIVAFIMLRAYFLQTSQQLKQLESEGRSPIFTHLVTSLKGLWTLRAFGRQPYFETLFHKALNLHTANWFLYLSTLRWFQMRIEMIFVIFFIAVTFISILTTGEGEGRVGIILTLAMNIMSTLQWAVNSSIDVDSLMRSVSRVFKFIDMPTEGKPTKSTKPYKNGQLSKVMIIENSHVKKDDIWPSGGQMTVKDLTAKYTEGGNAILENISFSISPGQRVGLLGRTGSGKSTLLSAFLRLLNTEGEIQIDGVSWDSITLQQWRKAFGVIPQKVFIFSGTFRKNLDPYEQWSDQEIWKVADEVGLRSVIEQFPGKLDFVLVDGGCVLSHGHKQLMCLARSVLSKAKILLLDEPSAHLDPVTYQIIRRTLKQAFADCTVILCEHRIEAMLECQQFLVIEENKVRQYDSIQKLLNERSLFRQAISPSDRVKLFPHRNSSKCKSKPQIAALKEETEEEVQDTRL

| SMILES | Maximum % activity (with co-corrector) [1] | pEC50 [2] | Emax [3] [%] | pEC50 [4] | pEC50 [5] | Maximum % activity (with co-corrector) (with co-corrector) | pEC50 [6] | Emax (without co-corrector) [%] | EC50 (with co-corrector) [1] | EC50 (without co-corrector) [3] |
| --- | --- | --- | --- | --- | --- | --- | --- | --- | --- | --- |
| CCc1cnc(OCC2CC2)c(C2(C(=O)NS(=O)(=O)c3cccc4nc(C)ccc34)CC2)c1 [Example GI-107, 1-[2-(cyclopropylmethoxy)-5-ethylpyridin-3-yl]-N-(2-methylquinoline-5-sulfonyl)cyclopropane-1-carboxamide] | +++ (≥350) | > 5.52 | > 150 | > 5.52 | – | – | – | – | – | – |
| CC(C)Oc1ncc(N2CCCC2)cc1C1(C(=O)NS(=O)(=O)c2cccc3ncccc23)CC1 [Example GI-62, 1-{2-[(propan-2-yl)oxy]-5-(pyrrolidin-1-yl)pyridin-3-yl}-N-(quinoline-5-sulfonyl)cyclopropane-1-carboxamide] | +++ (≥350) | > 5.52 | > 150 | > 5.52 | – | – | – | – | – | – |
| COc1cc(C2(C(=O)NS(=O)(=O)c3cccc4[nH]ccc34)CC2)c(OCC(C)C)cn1 [Example GI-21, N-(1H-indole-4-sulfonyl)-1-[2-methoxy-5-(2-methylpropoxy)pyridin-4-yl]cyclopropane-1-carboxamide] | – | – | – | – | > 5.52 | +++ (≥350) | > 5.52 | > 150 | – | – |
| CCOc1ccc(C(C)(C)COC)cc1C1(C(=O)NS(=O)(=O)c2cccc3nc(C)ccc23)CC1 [II-105] | – | – | – | – | > 5.52 | +++ (≥350) | > 5.52 | > 150 | – | – |
| COc1cnc(OCC2CC2)c(C2(C(=O)NS(=O)(=O)c3cccc4ncccc34)CC2)c1 [Example GI-87, 1-[2-(cyclopropylmethoxy)-5-methoxypyridin-3-yl]-N-(quinoline-5-sulfonyl)cyclopropane-1-carboxamide] | +++ (≥350) | > 5.52 | > 150 | 5.00 to 5.52 | – | – | – | – | – | – |
| CC(C)c1nc(C(F)(F)F)ccc1C1(C(=O)NS(=O)(=O)c2cccc3ncccc23)CC1 [Example GI-7, 1-[2-(propan-2-yl)-6-(trifluoromethyl)pyridin-3-yl]-N-(quinoline-5-sulfonyl)cyclopropane-1-carboxamide] | – | – | – | – | 5.00 to 5.52 | +++ (≥350) | > 5.52 | > 150 | – | – |
| COc1ccc(S(=O)(=O)NC(=O)C2(c3ccc(Cl)cc3Cl)CC2)cc1 [Example III-24, 1-(2,4-dichlorophenyl)-N-(4-methoxybenzene-1-sulfonyl)cyclopropane-1-carboxamide] | – | – | – | – | < 5.00 | ++ (≥150 and <350) | < 5.00 | < 50 | – | – |
| COc1cc(C2CCC2)cc(OC)c1C1(C(=O)NS(=O)(=O)c2cccc3ncn(C)c23)CC1 [Example III-123, 1-(4-cyclobutyl-2,6-dimethoxyphenyl)-N-(1-methyl-1H-benzimidazole-7-sulfonyl)cyclopropane-1-carboxamide] | – | – | – | – | 5.00 to 5.52 | +++ (≥350) | > 5.52 | > 150 | – | – |
| COCC1(c2ccc(OC)c(C3(C(=O)NS(=O)(=O)c4cccc5nc(N)ccc45)CC3)c2)CC1 [II-82] | – | – | – | – | 5.00 to 5.52 | +++ (≥350) | > 5.52 | > 150 | – | – |
| Cc1ccccc1S(=O)(=O)NC(=O)C1(c2ccc(Cl)cc2)CC1 [Example III-88, 1-(4-chlorophenyl)-N-(2-methylbenzene-1-sulfonyl)cyclopropane-1-carboxamide] | – | – | – | – | 5.00 to 5.52 | ++ (≥150 and <350) | 5.00 to 5.52 | < 50 | – | – |
| COc1ccc(OC2CCC2)cc1C1(C(=O)NS(=O)(=O)c2cccc3ncccc23)CC1 [Example I-32, 1-[5-(cyclobutyloxy)-2-methoxyphenyl]-N-(quinoline-5-sulfonyl)cyclopropane-1-carboxamide] | – | – | – | – | > 5.52 | +++ (≥350) | > 5.52 | > 150 | – | – |
| O=C(NS(=O)(=O)c1ccc(-c2ccno2)s1)C1(c2ccc(Cl)cc2Cl)CC1 [Example III-17, 1-(2,4-dichlorophenyl)-N-[5-(1,2-oxazol-5-yl)thiophene-2-sulfonyl]cyclopropane-1-carboxamide] | – | – | – | – | < 5.00 | + (<150) | < 5.00 | < 50 | – | – |
| O=C(NS(=O)(=O)Cc1ccccc1)C1(c2ccccc2Cl)CC1 [Example III-113, 1-(2-chlorophenyl)-N-(phenylmethanesulfonyl)cyclopropane-1-carboxamide] | – | – | – | – | < 5.00 | ++ (≥150 and <350) | 5.00 to 5.52 | < 50 | – | – |
| O=C(OCc1ccccc1)N1CCC(S(=O)(=O)NC(=O)C2(c3ccc(Cl)cc3Cl)CC2)CC1 [Example III-22, benzyl 4-{[1-(2,4-dichlorophenyl)cyclopropane-1-carbonyl]sulfamoyl}piperidine-1-carboxylate] | – | – | – | – | < 5.00 | ++ (≥150 and <350) | 5.00 to 5.52 | < 50 | – | – |
| COc1ncc(C2CCC2)cc1C1(C(=O)NS(=O)(=O)c2cccc3[nH]ncc23)CC1 [II-15] | – | – | – | – | 5.00 to 5.52 | +++ (≥350) | > 5.52 | > 150 | – | – |
| CCc1ccc(O[C@H](C)COC)c(C2(C(=O)NS(=O)(=O)c3cccc4ncccc34)CC2)c1 [Example I-111, 1-(5-ethyl-2-{[(2R)-1-methoxypropan-2-yl]oxy}phenyl)-N-(quinoline-5-sulfonyl)cyclopropane-1-carboxamide] | – | – | – | – | > 5.52 | +++ (≥350) | > 5.52 | > 150 | – | – |
| O=C(NS(=O)(=O)c1cccc2ncccc12)C1(c2cc(Cl)cnc2C(F)(F)F)CC1 [GIII-2] | + (<150) | < 5.00 | < 50 | < 5.00 | – | – | – | – | – | – |
| Cc1cnc(F)cc1C1(C(=O)NS(=O)(=O)c2cccc3c2CCCN3)CC1 [GIII-7] | ++ (≥150 and <350) | – | < 50 | – | – | – | – | – | ++^a | ++^a |
| Cc1ccc(OC(C)C)c(C2(C(=O)NS(=O)(=O)c3cccc4[nH]ccc34)CC2)c1 [II-79] | – | – | – | – | > 5.52 | +++ (≥350) | > 5.52 | > 150 | – | – |
| COc1ccc(C2CCCC2)cc1C1(C(=O)NS(=O)(=O)c2cccc3c2CCCN3)CCC1 [II-21] | – | – | – | – | > 5.52 | +++ (≥350) | > 5.52 | > 150 | – | – |
| CCc1cnc(N2CCC(OC(C)C)CC2)c(C2(C(=O)NS(=O)(=O)c3cccc4nc(C)ccc34)CC2)c1 [GII-55, 1-(5-ethyl-2-{4-[(propan-2-yl)oxy]piperidin-1-yl}pyridin-3-yl)-N-(2-methylquinoline-5-sulfonyl)cyclopropane-1-carboxamide] | +++ (≥350) | 5.00 to 5.52 | > 150 | 5.00 to 5.52 | – | – | – | – | – | – |
| CCOC(C)(C)c1ccc(OC(F)F)c(C2(C(=O)NS(=O)(=O)c3cccc4nc(C)ccc34)CC2)c1 [II-107] | – | – | – | – | > 5.52 | +++ (≥350) | > 5.52 | > 150 | – | – |

Reference: patent US10829473B2, “Modulators of the cystic fibrosis transmembrane conductance regulator protein and methods of use” (AbbVie Overseas S.Á.R.L., priority 2017, dated 2020)
